Data as given in article PMC7594079, “Insights into the Function and Evolution of Taste 1 Receptor Gene Family in the Carnivore Fish Gilthead Seabream (Sparus aurata)” (International Journal of Molecular Sciences, 2020).

What was measured:
Assay type in all cases: cell-based
[1] = target: T1, saT1R2b/R3 (Sparus aurata, UniProt A0A671TG56+A0A671VZB3); test: saT1R2b/R3 heterodimer transiently transfected in stable pGL3-NFAT-luc-HEK293 (Cl.3) cells, luciferase reporter; conditions: saT1R2b/R3; tested 1–500 mM
T1 sequence (A0A671TG56 20-821): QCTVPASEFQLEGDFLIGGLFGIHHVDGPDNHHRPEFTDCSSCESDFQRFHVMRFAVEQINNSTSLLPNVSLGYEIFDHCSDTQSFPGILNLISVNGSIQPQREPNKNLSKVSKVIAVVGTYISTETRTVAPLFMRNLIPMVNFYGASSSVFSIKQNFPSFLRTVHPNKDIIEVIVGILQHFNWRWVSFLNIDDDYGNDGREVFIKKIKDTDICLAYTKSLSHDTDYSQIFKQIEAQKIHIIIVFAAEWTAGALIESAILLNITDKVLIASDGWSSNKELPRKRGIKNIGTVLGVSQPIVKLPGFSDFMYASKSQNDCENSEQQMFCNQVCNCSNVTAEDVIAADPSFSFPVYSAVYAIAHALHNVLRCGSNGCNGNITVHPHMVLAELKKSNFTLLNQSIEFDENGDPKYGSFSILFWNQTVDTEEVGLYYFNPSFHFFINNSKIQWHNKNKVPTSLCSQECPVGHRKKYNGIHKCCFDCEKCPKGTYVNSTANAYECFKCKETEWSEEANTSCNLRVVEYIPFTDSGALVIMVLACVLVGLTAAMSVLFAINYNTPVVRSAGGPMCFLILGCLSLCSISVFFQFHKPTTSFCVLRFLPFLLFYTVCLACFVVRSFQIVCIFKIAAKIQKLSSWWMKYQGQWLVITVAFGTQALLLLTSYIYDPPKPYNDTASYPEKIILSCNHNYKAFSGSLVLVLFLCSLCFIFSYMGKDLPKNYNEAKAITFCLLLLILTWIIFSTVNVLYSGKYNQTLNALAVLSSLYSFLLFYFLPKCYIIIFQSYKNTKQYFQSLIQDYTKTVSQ
T1 sequence (A0A671VZB3 24-860): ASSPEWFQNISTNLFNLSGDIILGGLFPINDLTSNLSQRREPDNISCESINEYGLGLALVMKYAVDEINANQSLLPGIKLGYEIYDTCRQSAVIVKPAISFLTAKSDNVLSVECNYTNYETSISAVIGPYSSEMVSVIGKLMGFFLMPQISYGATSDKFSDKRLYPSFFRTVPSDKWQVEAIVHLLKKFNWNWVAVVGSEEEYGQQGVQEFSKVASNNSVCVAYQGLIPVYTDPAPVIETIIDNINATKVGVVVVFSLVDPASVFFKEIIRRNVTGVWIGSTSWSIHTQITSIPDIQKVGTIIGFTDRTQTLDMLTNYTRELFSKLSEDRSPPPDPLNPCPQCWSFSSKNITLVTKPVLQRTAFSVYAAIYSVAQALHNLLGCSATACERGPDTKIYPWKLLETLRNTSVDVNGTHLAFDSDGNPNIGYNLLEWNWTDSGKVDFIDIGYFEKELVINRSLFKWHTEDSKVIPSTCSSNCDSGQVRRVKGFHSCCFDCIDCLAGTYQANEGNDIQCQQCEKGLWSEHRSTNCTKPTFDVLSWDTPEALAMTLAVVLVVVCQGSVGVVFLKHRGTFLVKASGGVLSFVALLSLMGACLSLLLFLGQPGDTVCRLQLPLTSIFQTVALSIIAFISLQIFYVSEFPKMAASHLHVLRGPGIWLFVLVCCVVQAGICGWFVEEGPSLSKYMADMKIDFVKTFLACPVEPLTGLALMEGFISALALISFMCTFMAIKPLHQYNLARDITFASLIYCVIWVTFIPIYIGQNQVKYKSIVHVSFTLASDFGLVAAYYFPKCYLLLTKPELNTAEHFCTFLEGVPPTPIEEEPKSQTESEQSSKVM
Source text: (§1) Figure 6 Amino acid Log-dose response curves of activation in heterologous co-transfected (Cl.3) cells with saT1R1/3 (green dots), saT1R2a/3 (red squares) and saT1R2b/3 (black triangles) heterodimers. Evaluation of L-AA responses was based on the RLU mean ± SEM of four independent determinations normalized to the mean response of the same transfections stimulated with reduced assay medium (Basal Medium Eagle w/o L-glutamate (BME) + 1% FBS), and expressed as the percentage relative to basal levels (BL).
(§2) HEK293 cells were cultured in standard medium DMEM (Gibco, Thermo Fisher, Saint Louis, MO, USA) containing 10% FBS, penicillin (100 U/mL) and streptomycin ([…]) at 37 °C, with a humidified atmosphere at 5% CO2. pGL3-NFAT-luc-HEK293 stable clones were generated by co-transfections of pGL3-NFAT-luc and tgCMV/HyTK plasmids (50:1), the latter harboring the hygromycin phosphotransferase gene, using Lipofectamine LTX according to supplier’s protocols (Thermo Fisher, Saint Louis, MO, USA). Initially, HEK293 cells were selected using DMEM containing 400 μg/mL hygromycin B (Sigma, Darmstadt, Germany) in 24-well plates for two weeks; 24 colonies were further grown out in 96-well plates under reduced hygromycin selection (200 µg/mL) for three weeks. Potentially resistant NFAT-luc-HEK293 clones (n = 22) were validated after incubation in assay medium (DMEM + 1% FBS) containing PMA or Ionomycin (Sigma, Darmstadt, Germany) for 18 h (triplicates, 50,000 cells/well). Luciferase activity was quantified with ONE-Glo™ EX Reagent Kit (Promega, Madison, WI, USA) using a 96-microplate TECAN reader (Trading AG, Switzerland).
(§3) saT1Rs (saT1R1, saT1R2a, saT1R2b saT1R3) and saGαi1-2 genes were RT-PCR amplified using 5’ and 3’ flanking primers carrying HindIII and XhoI restriction sites, respectively. Gel-purified fragments were cloned into pGEM-T Easy vectors, re-sequenced, digested and subcloned into pcDNA™3 (Invitrogen, Carlsbad, CA, USA). Effective saT1R cloning into pcDNA™3 was further verified by HindIII/XhoI digestion. Transient co-transfections were done in 6-well plates (confluence ~70–80%) using 100 μL of reduced serum medium (Opti-MEM, Gibco, Thermo Fisher, Saint Louis, MO, USA) containing 150 ng of each selected pcDNA™3 construct, 1:10 charge ratio of Enhanced Green Fluorescent expressing construct (EGFP; positive control), and pBluescript II SK (+) vector DNA (Addgene, Watertown, MA, USA) up to 1 µg of totally transfected DNA. Following 24 h incubation, cells were washed with fresh standard medium and plated in polylysine treated plates for additional 24 h. Cells were then stimulated with L-AAs and sugar compounds for 18 h in a reduced assay medium (BME w/o L-glutamate; Gibco, Thermo Fisher, Saint Louis, MO, USA) + 1% FBS), to prevent unspecific Ca^2+/NFAT signaling activation and potential saT1R desensitization. All L-AAs and sugars used for in vitro experiments were obtained from Merck KGaA (Darmstadt, Germany).

[2] = target: T2, saT1R2a/R3 (Sparus aurata, UniProt A0A671TK95+A0A671VZB3); test: saT1R2a/R3 heterodimer transiently transfected in stable pGL3-NFAT-luc-HEK293 (Cl.3) cells, luciferase reporter; conditions: saT1R2a/R3; tested 1–500 mM
T2 sequence (A0A671TK95 20-825): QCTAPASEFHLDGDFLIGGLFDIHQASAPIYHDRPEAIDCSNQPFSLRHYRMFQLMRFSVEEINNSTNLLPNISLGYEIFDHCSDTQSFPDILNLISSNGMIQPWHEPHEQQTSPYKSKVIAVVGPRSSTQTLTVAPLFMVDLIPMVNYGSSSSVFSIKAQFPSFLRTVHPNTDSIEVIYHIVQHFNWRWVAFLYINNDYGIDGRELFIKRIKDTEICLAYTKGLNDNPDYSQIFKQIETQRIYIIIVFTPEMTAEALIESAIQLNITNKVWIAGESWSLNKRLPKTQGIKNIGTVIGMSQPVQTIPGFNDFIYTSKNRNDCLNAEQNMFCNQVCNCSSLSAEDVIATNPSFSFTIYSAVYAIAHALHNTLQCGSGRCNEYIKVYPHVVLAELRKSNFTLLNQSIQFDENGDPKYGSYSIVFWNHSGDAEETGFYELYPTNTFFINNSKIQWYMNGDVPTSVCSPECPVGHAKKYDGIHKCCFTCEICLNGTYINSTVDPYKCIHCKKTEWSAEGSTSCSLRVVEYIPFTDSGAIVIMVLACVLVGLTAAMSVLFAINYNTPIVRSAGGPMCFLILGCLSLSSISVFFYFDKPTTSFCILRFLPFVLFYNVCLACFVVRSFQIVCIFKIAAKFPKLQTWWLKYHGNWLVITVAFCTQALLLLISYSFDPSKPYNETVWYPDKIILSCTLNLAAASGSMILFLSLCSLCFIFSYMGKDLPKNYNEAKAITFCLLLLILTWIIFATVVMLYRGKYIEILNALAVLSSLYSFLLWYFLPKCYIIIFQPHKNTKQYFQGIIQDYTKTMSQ
T2 sequence (A0A671VZB3 24-860): T1 sequence (A0A671VZB3 24-860)
Source text: as §1, §2, §3

[3] = system: pGL3-NFAT-luc reporter (Ca2+/NFAT signaling); test: pGL3-NFAT-luc construct responsiveness in transiently transfected HEK293 cells; conditions: 10-fold serial dilutions
Source text: The luciferase reporter system used in the present study is based on a pGL3-plasmid including three (N)uclear (F)actor of (A)ctivated T cells (NFAT)-responsive elements located upstream of an interleukin-2 (IL2) minimal promoter driving expression of the firefly luciferase reporter gene (pGL3-NFAT-luc plasmid; Addgene (Watertown, MA, USA), cat. number. 17870). To evaluate pGL3-NFAT-luc construct responsiveness, transiently transfected HEK293 cells were stimulated with Phorbol 12-myristate 13-acetate (PMA) and ionomycin, two compounds known to modulate NFAT signaling by mobilization of intracellular Ca^2+ storages.
Figure 4 Evaluation of pGL3-NFAT-luc construct responsiveness to 10-fold serial dilutions to PMA (A) and ionomycin (B) in transiently transfected HEK293 cells. RLU%: Relative Luminescence Unit percentage. […] BL (Basal Levels) = 100% RLU. Different lowercase letters (a,b) on top of bars indicate significant differences (p < 0.05) between concentrations, assessed by one-way ANOVA followed by Tukey’s Multiple Comparison Test (GraphPad Prism version 5.00 Software, La Jolla, CA, USA). […]

| concentration with significant activation [1] [mM] | concentration with significant activation [2] [mM] | Structure (SMILES) | luminescence response of pGL3-NFAT-luc construct [3] |
| --- | --- | --- | --- |
| 100 | 100 | OC[C@@H]1O[C@@H](O[C@@]2(CO)O[C@@H](CO)[C@H](O)[C@H]2O)[C@@H](O)[C@H](O)[C@H]1O [L-Sucrose] | – |
| – | – | CCCCCCCCCCCCCC(=O)O[C@@H]1[C@@H](C)[C@@]2(O)[C@@H](C=C(CO)C[C@]3(O)C(=O)C(C)=C[C@@H]23)[C@@H]2C(C)(C)[C@]12OC(C)=O [PMA, Phorbol 12-myristate 13-acetate] | significant luminescence dose-response increases |
| – | – | C[C@H](CCC(=O)O)C[C@H](C)C[C@H](C)C(=O)/C=C(\O)[C@H](C)C[C@H](C)C/C=C/[C@@H](C)[C@@H](O)[C@@H](C)[C@@H](O)C[C@@H]1CC[C@@](C)([C@H]2CC[C@@](C)([C@@H](C)O)O2)O1 [ionomycin] | significant luminescence dose-response increases |
